Where a name gives a salt, the structure may show the parent alone.
What was measured:
[1] = target: ABL (Homo sapiens, UniProt P00519); test: ABL Kinase Activity Assay (Elisa), ABL; format: biochemical; details: ATP 100 μM, read-out: Abl Enzymetic assay (Elisa) % inhibition
How it was run: (§1)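 Recombinant ABL or ABL T315I (0.089 nM final) preincubated 20 min with compound, then reacted 1 h at room temperature with 100 μM ATP and 128 nM biotinylated AblTide in Tris pH 7.0/MgCl2 buffer. Phosphopeptide captured on streptavidin and detected by anti-phosphotyrosine ELISA with alkaline phosphatase secondary and Attophos fluorescence.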

[2] = tested on: MDA-MB-231; test: MTS assay, MDA-MB-231 cells; format: cell-based; details: Homo sapiens, 72 hours
How it was run: (§2)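 First, seed 3000 cells per well in low-serum (1% FBS) DMEM and culture 18 h. Next, add compounds prepared at 300× in DMSO and diluted 1:40 in DMEM; incubate 72 h. Finally, add MTS/PMS for 4 h and measure absorbance at 492 nm.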

[3] = tested on: PACA-2; test: MTS assay, PACA-2 cells; format: cell-based; details: 72 hours
How it was run: as §2

[4] = tested on: NCI-H1299; test: MTS assay, NCI-H1299 cells; format: cell-based; details: Homo sapiens, 72 hours
How it was run: as §2

[5] = tested on: KATO III; test: MTS assay, KATO III cells; format: cell-based; details: Homo sapiens, 72 hours
How it was run: as §2

[6] = target: ABL T315I (Homo sapiens, UniProt P00519, T315I); test: ABL Kinase Activity Assay (Elisa), ABL T315I; format: biochemical; details: ATP 100 μM, read-out: Abl(T315I) Enzymetic assay (Elisa) % inhibition
How it was run: as §1

[7] = tested on: DLD-1; test: MTS assay, DLD-1 cells; format: cell-based; details: Homo sapiens, 72 hours
How it was run: as §2

[8] = tested on: PC-3; test: MTS assay, PC-3 cells; format: cell-based; details: Homo sapiens, 72 hours
How it was run: as §2

Structure (SMILES)	melting point [°C]	inhibition at 10 µM [1] [%]	inhibition at 10 µM [2] [%]	inhibition at 10 µM [3] [%]	inhibition at 10 µM [4] [%]	inhibition at 10 µM [5] [%]	inhibition at 10 µM [6] [%]	inhibition at 10 µM [7] [%]	inhibition at 10 µM [8] [%]
c1cnc2c(c1)-c1nc(NCC3CCNCC3)ncc1-c1ccncc1N2 (as salt: TFA) [Example 60, N-(piperidin-4-ylmethyl)-9H-dipyrido[2,3-b:4′,3′-f]pyrimido[4,5-d]azepin-2-amine]	151 to 153								
Clc1cccc(CNc2ncc3c(n2)-c2cccnc2Nc2cnccc2-3)c1 [Example 1, N-(3-chlorobenzyl)-9H-dipyrido[2,3-b:4′,3′-f]pyrimido[4,5-d]azepin-2-amine]	195 to 196	80 to 100	< 50	< 50	50 to 79	80 to 100	80 to 100	50 to 79	
Fc1ccc(CNc2ncc3c(n2)-c2cccnc2Nc2cnccc2-3)c(F)c1 [Example 2, N-(2,4-difluorobenzyl)-9H-dipyrido[2,3-b:4′,3′-f]pyrimido[4,5-d]azepin-2-amine]	264 to 266	80 to 100	< 50	< 50	50 to 79	50 to 79	80 to 100	< 50	
Cc1cccc2c(CCNc3ncc4c(n3)-c3cccnc3Nc3cnccc3-4)c[nH]c12 [Example 52, N-[2-(7-methyl-1H-indol-3-yl)ethyl]-9H-dipyrido[2,3-b:4′,3′-f]pyrimido[4,5-d]azepin-2-amine]	153 to 155	80 to 100	< 50	< 50	50 to 79	80 to 100	80 to 100	50 to 79	< 50
Nc1ccc(-c2ncc3c(n2)-c2cccnc2Nc2cnccc2-3)cc1 [Example 53, 4-(9H-dipyrido[2,3-b:4′,3′-f]pyrimido[4,5-d]azepin-2-yl)aniline]	> 300		< 50	< 50	< 50	< 50		< 50	< 50
c1ccc(-c2ncc3c(n2)-c2cccnc2Nc2cnccc2-3)cc1 [Example 54, 2-phenyl-9H-dipyrido[2,3-b:4′,3′-f]pyrimido[4,5-d]azepine]	> 300		< 50		< 50	< 50		< 50	< 50
c1cnc2c(c1)-c1nc(NCc3ccnc4[nH]ccc34)ncc1-c1ccncc1N2 [Example 55, N-(1H-pyrrolo[2,3-b]pyridin-4-ylmethyl)-9H-dipyrido[2,3-b:4′,3′-f]pyrimido[4,5-d]azepin-2-amine]	208 to 211		< 50	80 to 100	50 to 79	80 to 100		80 to 100	80 to 100
OCCc1cccc(Nc2ncc3c(n2)-c2cccnc2Nc2cnccc2-3)c1 [Example 56, 2-[3-(9H-dipyrido[2,3-b:4′,3′-f]pyrimido[4,5-d]azepin-2-ylamino)phenyl]ethanol]	208 to 211		< 50	80 to 100	50 to 79	80 to 100		50 to 79	< 50
Cc1cccc2c(CCNc3ncc4c(n3)-c3cccnc3Nc3ccccc3-4)c[nH]c12 [Example 65, N-[2-(7-methyl-1H-indol-3-yl)ethyl]-9H-pyrido[2,3-b]pyrimido[4,5-d][1]benzazepin-2-amine]	188 to 190		50 to 79	80 to 100	80 to 100	80 to 100		80 to 100	80 to 100
c1ccc2c(c1)Nc1ncccc1-c1nc(NCc3ccnc4[nH]ccc34)ncc1-2 [Example 66, N-(1H-pyrrolo[2,3-b]pyridin-4-ylmethyl)-9H-pyrido[2,3-b]pyrimido[4,5-d][1]benzazepin-2-amine]	285 to 288		50 to 79	80 to 100	50 to 79	80 to 100		50 to 79	50 to 79

From US8349827B2, “Substituted dipyrido-pyrimido-diazepine and benzo-pyrido-pyrimido compounds” (ArQule, Inc., priority 2009, dated 2013)
